Assay results as given in patent US9242970B2 (ACTELION PHARMACEUTICALS LTD., priority 2010, dated 2016).
Read-outs that look alike come from different tables or passages of the source.

Tests used:
[1] = target: human orexin-1 receptor (Homo sapiens (Human), UniProt O43613); test: In vitro assay: intracellular calcium measurements (FLIPR), antagonistic activity; assay type: cell-based; conditions: CHO cells, 3 nM orexin-A, marked values are geometric means of n = 2-6, read-out: IC50 OX1
Description: (§1) In Vitro Assay: Intracellular Calcium Measurements:
(§2) Chinese hamster ovary (CHO) cells expressing the human orexin-1 receptor and the human orexin-2 receptor, respectively, are grown in culture medium (Ham F-12 with L-Glutamine) containing 300 µg/ml G418, 100 U/ml penicillin, 100 µg/ml streptomycin and 10% heat inactivated fetal calf serum (FCS). The cells are seeded at 20,000 cells/well into 384-well black clear bottom sterile plates (Greiner). The seeded plates are incubated overnight at 37° C. in 5% CO2.
(§3) Fluorescence is measured for each well at 1 second intervals, and the height of each fluorescence peak is compared to the height of the fluorescence peak induced by 3 nM orexin-A with vehicle in place of antagonist. […] Optimized conditions were achieved by adjustment of pipetting speed and cell splitting regime. The calculated IC50 values may fluctuate depending on the daily cellular assay performance. Fluctuations of this kind are known to those skilled in the art.

[2] = target: human orexin-2 receptor (Homo sapiens (Human), UniProt O43614); test: as above; assay type: cell-based; conditions: CHO cells, 3 nM orexin-A, marked values are geometric means of n = 2-6, read-out: IC50 OX2
Chain of human orexin-2 receptor (O43614 whole entry): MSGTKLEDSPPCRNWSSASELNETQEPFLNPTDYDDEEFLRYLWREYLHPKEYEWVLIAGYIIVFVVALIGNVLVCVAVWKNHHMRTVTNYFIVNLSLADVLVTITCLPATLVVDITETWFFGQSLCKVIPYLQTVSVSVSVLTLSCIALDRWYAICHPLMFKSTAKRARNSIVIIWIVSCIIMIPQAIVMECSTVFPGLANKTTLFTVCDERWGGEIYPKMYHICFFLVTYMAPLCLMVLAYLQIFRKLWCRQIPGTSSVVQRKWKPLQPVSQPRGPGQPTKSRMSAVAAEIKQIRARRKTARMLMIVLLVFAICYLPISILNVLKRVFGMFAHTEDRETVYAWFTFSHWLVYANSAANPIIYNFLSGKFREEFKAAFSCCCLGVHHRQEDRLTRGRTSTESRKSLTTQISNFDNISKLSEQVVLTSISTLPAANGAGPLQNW
Description: as §1, §2, §3

[3] = compound incubation time of 10 min

Chain of human orexin-1 receptor (O43613 whole entry): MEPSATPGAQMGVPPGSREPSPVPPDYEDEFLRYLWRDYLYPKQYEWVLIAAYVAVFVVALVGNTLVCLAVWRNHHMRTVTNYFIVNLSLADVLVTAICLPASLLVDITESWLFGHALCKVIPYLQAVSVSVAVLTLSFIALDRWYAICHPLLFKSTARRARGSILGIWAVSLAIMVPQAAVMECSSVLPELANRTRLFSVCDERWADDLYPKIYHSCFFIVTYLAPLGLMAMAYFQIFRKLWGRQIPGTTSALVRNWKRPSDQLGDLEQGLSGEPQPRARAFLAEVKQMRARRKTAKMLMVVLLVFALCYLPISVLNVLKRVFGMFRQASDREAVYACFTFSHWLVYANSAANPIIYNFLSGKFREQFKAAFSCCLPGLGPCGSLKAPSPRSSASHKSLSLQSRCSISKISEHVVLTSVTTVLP

Row | Compound | IC50 ([1]; compound incubation 120 min) [nM] | IC50 ([2]; compound incubation 120 min) [nM] | IC50 [1, 3] [nM] | IC50 [2, 3] [nM]
1 | COc1cccc(OC)c1C1CC(C)C(=O)N1Cc1cccc(-c2ncc(C)s2)c1 (centres unmarked) [Example 148, 5-(2,6-dimethoxyphenyl)-3-methyl-1-(3-(5-methylthiazol-2-yl)benzyl)pyrrolidin-2-one] | 3 | 21 |  | 
2 | COc1cncc(OC)c1C1CCCCC(=O)N1Cc1cccc(-c2ccccc2)c1 (centres unmarked) [Example 275, 1-([1,1′-biphenyl]-3-ylmethyl)-7-(3,5-dimethoxypyridin-4-yl)azepan-2-one] | 50 | 80 |  | 
3 | COc1cccc(OC)c1C1CCCCC(=O)N1Cc1ccc2ccccc2c1 (centres unmarked) [Example 75, 7-(2,6-dimethoxyphenyl)-1-(naphthalen-2-ylmethyl)azepan-2-one] | 12 | 32 |  | 
4 | COc1cccc(OC)c1[C@@H]1C[C@@H](Cl)C(=O)N1Cc1ccc(OC(F)(F)F)cc1 (racemic) [Example 257, rac-(3R*,5S*)-3-chloro-5-(2,6-dimethoxyphenyl)-1-(4-(trifluoromethoxy)benzyl)pyrrolidin-2-one] |  |  | 177 | 563
5 | COc1cccc(OC)c1C1CCCC(=O)N1Cc1ccccc1Oc1ccccc1 (centres unmarked) [Example 191, 6-(2,6-dimethoxyphenyl)-1-(2-phenoxybenzyl)piperidin-2-one] |  |  | 373 | 50
6 | COc1cccc(OC)c1C1CCCC(=O)N1Cc1cccc(OC(F)(F)F)c1 (centres unmarked) [Example 175, 6-(2,6-dimethoxyphenyl)-1-(3-(trifluoromethoxy)benzyl)piperidin-2-one] |  |  | 136 | 94
7 | CCOc1cccc(F)c1[C@@H]1C[C@@H](O)C(=O)N1Cc1ccc(OC(F)(F)F)cc1 (racemic) [Example 334, rac-(3R*,5S*)-5-(2-ethoxy-6-fluorophenyl)-3-hydroxy-1-(4-(trifluoromethoxy)benzyl)pyrrolidin-2-one] | 2120 | 33 |  | 
8 | COc1cccc(OC)c1C1CC(C)C(=O)N1Cc1ccc2sc3ccccc3c2c1 (centres unmarked) [Example 426, 1-(dibenzo[b,d]thiophen-2-ylmethyl)-5-(2,6-dimethoxyphenyl)-3-methylpyrrolidin-2-one] | 6 | 8 |  | 
9 | COc1cccc(OC)c1C1CCCC(=O)N1Cc1cc2ccccc2n1C (centres unmarked) [Example 247, 6-(2,6-dimethoxyphenyl)-1-((1-methyl-1H-indol-2-yl)methyl)piperidin-2-one] |  |  | 132 | 41
10 | COc1ccc(F)c(OC)c1[C@@H]1C[C@H](F)C(=O)N1Cc1ccc(OC(F)(F)F)cc1 (racemic) [Example 332, rac-(3S*,5S*)-3-fluoro-5-(3-fluoro-2,6-dimethoxyphenyl)-1-(4-(trifluoromethoxy)benzyl)pyrrolidin-2-one] | 1020 | 296 |  | 
11 | COc1cccc(OC)c1C1CCCC(=O)N1Cc1cc(OC(F)F)ccn1 (centres unmarked) [Example 188, 1-((4-(difluoromethoxy)pyridin-2-yl)methyl)-6-(2,6-dimethoxyphenyl)piperidin-2-one] |  |  | 4180 | 484
12 | COc1cccc(OC)c1C1CC(C)C(=O)N1Cc1cccc(-c2ccccn2)c1 (centres unmarked) [Example 140, 5-(2,6-dimethoxyphenyl)-3-methyl-1-(3-(pyridin-2-yl)benzyl)pyrrolidin-2-one] | 10 | 73 |  | 
13 | CC(C)Oc1cccc(F)c1C1CC(C)C(=O)N1Cc1ccc(OC(F)(F)F)cc1 (centres unmarked) [Example 413, 5-(2-fluoro-6-isopropoxyphenyl)-3-methyl-1-(4-(trifluoromethoxy)benzyl)pyrrolidin-2-one] | 1500 | 68 |  | 
14 | COc1cccc(OC)c1C1CCCC(=O)N1Cc1cn2ccccc2n1 (centres unmarked) [Example 242, 6-(2,6-dimethoxyphenyl)-1-(imidazo[1,2-a]pyridin-2-ylmethyl)piperidin-2-one] |  |  | 17700 | 1390
15 | CCOc1cccc(F)c1[C@@H]1C[C@@H](O)C(=O)N1Cc1ccccc1OC(F)(F)F (racemic) [Example 433, rac-(3R*,5S*)-5-(2-ethoxy-6-fluorophenyl)-3-hydroxy-1-(2-(trifluoromethoxy)benzyl)pyrrolidin-2-one] | 1710 | 3920 |  | 
16 | COc1cccc(OC)c1C1CCC(=O)N1Cc1cccc(-n2cccn2)c1 (centres unmarked) [Example 126, 1-(3-(1H-pyrazol-1-yl)benzyl)-5-(2,6-dimethoxyphenyl)pyrrolidin-2-one] | 165 | 839 |  | 
17 | COc1cccc(OC)c1C1CCCC(=O)N1Cc1ccc(Cl)cc1 (centres unmarked) [Example 158, 1-(4-chlorobenzyl)-6-(2,6-dimethoxyphenyl)piperidin-2-one] |  |  | 702 | 154

Row | Compound | IC50 ([1]; compound incubation 120 min) [nM] | IC50 ([2]; compound incubation 120 min) [nM] | IC50 [1, 3] [nM] | IC50 [2, 3] [nM]
18 | COc1cccc(OC)c1C1CCCC(=O)N1Cc1cccc(-n2nccn2)c1 (centres unmarked) [Example 44, 1-(3-(2H-1,2,3-triazol-2-yl)benzyl)-6-(2,6-dimethoxyphenyl)piperidin-2-one] | 14 | 19 |  | 
19 | COc1cccc(OC)c1C1CCCC(=O)N1Cc1cccc(-c2nccs2)c1 (centres unmarked) [Example 14, 6-(2,6-dimethoxyphenyl)-1-(3-(thiazol-2-yl)benzyl)piperidin-2-one] | 4 | 4 |  | 
20 | COc1cccc(OC)c1C1CCCC(=O)N1Cc1ccc(OC(F)F)cc1 (centres unmarked) [Example 165, 1-(4-(difluoromethoxy)benzyl)-6-(2,6-dimethoxyphenyl)piperidin-2-one] |  |  | 224 | 31
21 | CCOc1cccc(F)c1C1CC(C)C(=O)N1Cc1cccc(-c2nc(Cl)cs2)c1 (centres unmarked) [Example 385, 1-(3-(4-chlorothiazol-2-yl)benzyl)-5-(2-ethoxy-6-fluorophenyl)-3-methylpyrrolidin-2-one] | 64 | 2 |  | 
22 | COc1cccc(OC)c1C1CC(C)C(=O)N1Cc1ccc(OCCF)cc1 (centres unmarked) [Example 422, 5-(2,6-dimethoxyphenyl)-1-(4-(2-fluoroethoxy)benzyl)-3-methylpyrrolidin-2-one] | 863 | 1040 |  | 
23 | COc1cccc(OC)c1C1CCC(=O)N1Cc1ccnc(-c2ccccc2)c1 (centres unmarked) [Example 120, 5-(2,6-dimethoxyphenyl)-1-((2-phenylpyridin-4-yl)methyl)pyrrolidin-2-one] | 64 | 121 |  | 
24 | CCOc1cccc(F)c1[C@@H]1C[C@H](F)C(=O)N1Cc1ccc(OC(F)(F)F)c(F)c1 (racemic) [Example 434, rac-(3S*,5S*)-5-(2-ethoxy-6-fluorophenyl)-3-fluoro-1-(3-fluoro-4-(trifluoromethoxy)benzyl)pyrrolidin-2-one] | 655 | 21 |  | 
25 | COc1cccc(OC)c1C1CCC(=O)N1Cc1cccc(-c2csc(C)n2)c1 (centres unmarked) [Example 125, 5-(2,6-dimethoxyphenyl)-1-(3-(2-methylthiazol-4-yl)benzyl)pyrrolidin-2-one] | 11 | 82 |  | 
26 | COc1cccc(OC)c1C1CCCC(=O)N1Cc1ccnc(Br)c1 (centres unmarked) [Example 36, 1-((2-bromopyridin-4-yl)methyl)-6-(2,6-dimethoxyphenyl)piperidin-2-one] | 1570 | 1150 |  | 
27 | COc1cccc(OC)c1C1CCC(=O)N1Cc1ccc(Oc2nccs2)cc1 (centres unmarked) [Example 282, 5-(2,6-dimethoxyphenyl)-1-(4-(thiazol-2-yloxy)benzyl)pyrrolidin-2-one] | 139 | 213 |  | 
28 | CCOc1cc(F)cc(F)c1[C@@H]1C[C@H](Cl)C(=O)N1Cc1ccc(OC(F)(F)F)cc1 (racemic) [Example 439, rac-(3S*,5S*)-3-chloro-5-(2-ethoxy-4,6-difluorophenyl)-1-(4-(trifluoromethoxy)benzyl)pyrrolidin-2-one] | 575 | 63 |  | 
29 | COc1cccc(OC)c1C1CC(C)C(=O)N1Cc1cccc(-c2cncs2)c1 (centres unmarked) [Example 147, 5-(2,6-dimethoxyphenyl)-3-methyl-1-(3-(thiazol-5-yl)benzyl)pyrrolidin-2-one] | 20 | 114 |  | 
30 | COc1cccc(OC)c1C1CCCC(=O)N1Cc1cccc(N2CCCCC2)c1 (centres unmarked) [Example 13, 6-(2,6-dimethoxyphenyl)-1-(3-(piperidin-1-yl)benzyl)piperidin-2-one] | 22 | 46 |  | 
31 | COc1cccc(OC)c1C1CCCCC(=O)N1Cc1cccc(Oc2ccccc2)c1 (centres unmarked) [Example 74, 7-(2,6-dimethoxyphenyl)-1-(3-phenoxybenzyl)azepan-2-one] | 137 | 98 |  | 
32 | COc1cccc(OC)c1C1CC(C)C(=O)N1Cc1ccc(OCC(F)(F)F)cc1 (centres unmarked) [Example 418, 5-(2,6-dimethoxyphenyl)-3-methyl-1-(4-(2,2,2-trifluoroethoxy)benzyl)pyrrolidin-2-one] | 430 | 323 |  | 
33 | COc1cccc(OC)c1C1CCCCC(=O)N1Cc1cccc(-c2cscn2)c1 (centres unmarked) [Example 102, 7-(2,6-dimethoxyphenyl)-1-(3-(thiazol-4-yl)benzyl)azepan-2-one] | 6 | 19 |  | 
34 | COc1cccc(F)c1[C@@H]1C[C@H](F)C(=O)N1Cc1ccc(OC(F)(F)F)cc1 (racemic) [Example 301, rac-(3S*,5S*)-3-fluoro-5-(2-fluoro-6-methoxyphenyl)-1-(4-(trifluoromethoxy)benzyl)pyrrolidin-2-one] | 1700 | 66 |  | 
